Assay results taken from patent US10532066B2, “Surfactant lipids, compositions thereof, and uses thereof” (National Jewish Health, priority 2007, dated 2020).

Key:
MD-2 = molecular target: T1, MD-2 (Homo sapiens, UniProt Q9Y6Y9); assay: MD-2 binding to solid phase phospholipids; conditions: for binding to MD-2: 1.25 nmole lipid per well, MD-2 1 μg/ml
T1 construct: made in house; host or cells: baculovirus-insect cell expression system
T1 sequence (Q9Y6Y9 19-160): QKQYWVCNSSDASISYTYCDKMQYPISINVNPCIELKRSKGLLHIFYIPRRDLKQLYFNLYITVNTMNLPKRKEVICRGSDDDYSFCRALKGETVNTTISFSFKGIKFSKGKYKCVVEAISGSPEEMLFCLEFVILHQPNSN
Method: FIG. 16. MD-2 preferentially binds POPG.
The wells were then washed with 20 mM Tris buffer (pH 7.4) containing 0.15 M NaCl and 5 mM CaCl2 or 2 mM EGTA (buffer B), and 1 μg/ml anti-human CD14 IgG or anti-His antibody (50 μl/well) in buffer A was added and incubated overnight at 4° C., followed by the incubation with horseradish peroxidase (HRP)-labeled anti-mouse IgG (1:5000) for 1 h. After washing the wells with buffer B, the peroxidase reaction was finally performed using o-phenylenediamine as a substrate. The binding of CD14 or MD-2 to phospholipids was detected by measuring absorbance at 490 nm.

[1] = system: differentiated U937 cells; assay: LPS-induced TNF-α secretion by differentiated U937 cells; assay type: cell-based, human; conditions: LPS 10 ng/ml, 6 h, liposomes; LPS without phospholipid = 100%
Method: FIG. 1. Anionic phospholipids inhibit inflammatory mediator production induced by LPS. Liposomes composed of sphingomyelin (SM), phosphatidylethanolamine (PE) dipalmitoyl-phosphatidylcholine ((DPPC), phosphatidylserine (PS), palmitoyl-oleoyl-phosphatidylglycerol (POPG) and phosphatidylinositol (PI) were formed by bath-sonication for 30 min at room temperature. LPS (10 ng/ml) and different concentrations of phospholipids were added to monolayer cultures of differentiated U937 cells (A), or primary rat alveolar macrophages (B). At 6 h after stimulation, media were collected and secreted TNF-α levels were determined in U937 cultures. NO production was determined 24 h after stimulating rat alveolar macrophages. LPS stimulation in the absence of phospholipid was set as 100%. […] The average TNF-α production upon LPS stimulation was (8.0±0.54 ng/ml). The average NO production upon LPS stimulation was 12.17±0.27 μM.
FIG. 2. The inhibitory effect of phosphatidylglycerols on LPS-induced inflammatory mediator production is molecular species specific. PG liposomes were formed by bath-sonication for 30 min at room temperature. LPS (10 ng/ml) and different concentrations of PG were added to monolayer cultures of differentiated U937 cells (A) or rat alveolar macrophages (B). Media TNF-α measurements were performed 6 h after stimulation. Media NO measurements were performed 24 h after stimulation. LPS stimulation without PG was set at 100%. The molecular species of PG shown on the graph are 8:0; dioctanoyl-phosphatidylglycerol, 12:0; dilauroyl-phosphatidylglycerol (DLPG), 14:0; dimyristoyl-phosphatidylglycerol (DMPG), 16:0; dipalmitoyl-phosphatidylglycerol (DPPG), 18:0; distearoyl-phosphatidylglycerol, 16:0/18:1; palmitoyl-oleoyl-phosphatidylglycerol (POPG). […] The average TNF-α production upon LPS stimulation was 11.3±0.7 ng/ml. The average NO production upon LPS stimulation was 10.1±0.6 μM.
FIG. 3. […] Surfactant lipid (SL) and POPG were dried under nitrogen, and hydrated at 37° C. for 1 h. (A) SL and POPG were mixed in organic solvents prior to drying and hydrating and subsequently liposomes were produced. (B) SL and POPG were made as independent populations of liposomes that were subsequently mixed prior to macrophage treatment. 10 ng/ml of LPS and different concentrations of liposome mixtures were added to monolayer cultures of differentiated U937 cells. 6 h after stimulation, media were collected and TNF-α production was determined. LPS stimulation without phospholipid was set as 100%. […] The average TNF-α production upon LPS stimulation was 7.0±0.2 ng/ml.
U937 cells were induced to differentiate by treatment with 10 nM phorbol myristate acetate (PMA) for 48 h. The cells (1.3×10^5/well) were placed in 96-well plates and further incubated in the absence of PMA for 24 h in RPMI 1640 medium containing 10% BGS. Rat alveolar macrophages (5×10^5/well) were incubated in 24-well plates for 2 h after isolation. The indicated concentration of phospholipids was added to the cultures 30 min before adding LPS. After LPS addition cultures were incubated for 6 h at 37° C. at an atmosphere of 95% air and 5% CO2. At the end of the incubation period the medium was collected and assayed for TNF-α concentrations using an ELISA kit.
Surfactant lipids were isolated from the bronchioalveolar lavage of Sprague-Dawley rats, 28 days after intratracheal instillation of 25 mg of silica (˜125 mg/kg). Initially, the surfactant was purified by the method of Hawgood et. al. (25) using NaBr density gradient centrifugation. The purified surfactant was extracted with butanol (26) and segregated into butanol-soluble and -insoluble material.

[2] = system: differentiated U937 cells; assay: LPS-induced TNF-α production by U937 cells in serum free media (without LBP); assay type: cell-based, human; conditions: for LPS-induced synthesis and secretion of TNF-α in serum free media: LPS 10 ng/ml, 6 h, without LBP; for potency as LPS antagonist without LBP: serum free media compared with serum
Method: U937 cells were induced to differentiate by incubation in medium containing 10 nM of phorbol myristate acetate (PMA) for 48 h. The cells (1.3×10^5/well) were placed on 96-well plates and further incubated in the absence of PMA for 24 h in RPMI 1640 medium containing 10% BGS. After the cells were washed with PBS, the indicated concentration of phospholipids was preincubated with the cells in RPMI without serum for 30 min before adding LPS. The indicated amount of LPS was then added into the well and incubated for 6 h at 37° C. with 5% CO2. The culture medium was collected and assayed for TNF-α secretion using an ELISA kit (Invitrogen).

LBP binding to CD14 = molecular target: T2, LBP binding to CD14 (Homo sapiens, UniProt P08571); assay: Phospholipid competition for LBP-CD14 binding; conditions: LBP 1 μg/ml, liposomes 20 μg/ml
T2 construct: purchased Cell Sciences Inc. (CD14); R&D systems (LBP)
T2 sequence (P08571 20-345 limits assumed): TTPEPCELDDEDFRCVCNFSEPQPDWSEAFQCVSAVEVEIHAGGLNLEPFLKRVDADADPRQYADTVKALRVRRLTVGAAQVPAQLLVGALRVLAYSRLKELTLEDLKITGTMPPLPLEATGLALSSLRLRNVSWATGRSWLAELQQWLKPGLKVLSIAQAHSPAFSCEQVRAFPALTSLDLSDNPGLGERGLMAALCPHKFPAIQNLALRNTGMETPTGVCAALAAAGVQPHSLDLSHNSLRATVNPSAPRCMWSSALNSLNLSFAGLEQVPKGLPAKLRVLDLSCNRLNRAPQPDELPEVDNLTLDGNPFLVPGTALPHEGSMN
Method: CD14 (2 μg) or sTLR4 (100 ng) in aliquots of 20 μl of buffer B were pipeted onto a 96-well plate, and the solvent evaporated using a warm air dryer. […] The amount of bound LBP or MD-2 was detected using specific antibodies.

Compound	binding to MD-2 relative to the POPG value (MD-2; POPG = 100%) [%]	LPS-induced TNF-α production [1]	LPS-induced synthesis and secretion of TNF-α in serum free media [2]	potency as LPS antagonist without LBP [2]	reduction of the interaction of LBP with CD14 (LBP binding to CD14)	binding to MD-2 (MD-2)
CCCCCCCCCCCCCC(=O)OCC(COP(=O)(O)OCC(O)CO)OC(=O)CCCCCCCCCCCCC (stereo not drawn) [DMPG, dimyristoyl-phosphatidylglycerol]	~50	as potent as POPG	still inhibited	continues to remain high	–	–
CCCCCCCCCCCCCCCC(=O)OC[C@H](COP(=O)([O-])OCC[N+](C)(C)C)OC(=O)CCCCCCCCCCCCCCC [DPPC, dipalmitoyl-phosphatidylcholine, reference compound]	–	no significant effect	–	–	not exhibited	–
CCCCCCCCCCCCCCCC(=O)OCC(COP(=O)(O)OCC(O)CO)OC(=O)CCCCCCCCCCCCCCC (stereo not drawn) [DPPG, dipalmitoyl-phosphatidylglycerol, reference compound]	–	failed to antagonize	–	–	–	Neither saturated nor unsaturated PC, nor unsaturated PI, nor DPPG showed any significant binding
CCCCCCCC/C=C\CCCCCCCC(=O)O[C@H](COC(=O)CCCCCCCCCCCCCCC)COP(=O)(O)OCC(O)CO (stereo partly drawn) [POPG, palmitoyl-oleoyl-phosphatidylglycerol]	–	significantly attenuated	still inhibited	modestly diminished	approximately 40%	strongly bound
phosphatidylinositol [PI]	–	significantly attenuated	still inhibited	modestly diminished	not exhibited	Neither saturated nor unsaturated PC, nor unsaturated PI, nor DPPG showed any significant binding
